# Source: patent publication US12268669B2, “Pharmaceutical compositions and methods comprising a combination of a benzoxazole transthyretin stabilizer and an additional therapeutic agent” (Pfizer Inc., priority 2018, dated 2025)
# Columns and labels:
# [1] = system: amyloidogenic light chains; conditions: cited from earlier work
# [2] = system: TTR tetramers (WT or V122I); test: WT and V122I TTR fibril formation inhibition assay (turbidity at 350 nm, acidic conditions, 72 h); assay type: biochemical; conditions: WT or V122I TTR 3.6 μM; compound 3.6 and 7.2 μM; pH 4.4 or 4.5; 72 h (values only in FIG. 1 and 2)
# Procedure: Inhibition of WT and V122I TTR fibril formation under acidic conditions after 72 h-a sufficient period for aggregation to go to completion in the vehicle control (See Hurshman, A. R., White, J. T., Powers, E. T., Kelly, J. W.; Transthyretin aggregation under partially denaturing conditions is a downhill polymerization. Biochemistry 2004, 43, 7365-7381). Purified TTR tetramers (WT or V122I at 3.6 μM) were mixed with DMSO (vehicle control), Fx-1005 (positive control, See Razavi H, et al. Benzoxazoles as transthyretin amyloid fibril inhibitors: synthesis, evaluation, and mechanism of action. Angew Chem Int Ed Engl 2003, 42, 2758-2761), Fx-1003 (positive control) or PTC124 at final concentrations of 3.6 and 7.2 μM, and incubated for 30 minutes at 25° C. After adjusting the pH to 4.4 or 4.5, samples were incubated at 37° C. for 72 h. The turbidity was then measured at 350 nm using a UV-vis spectrometer. All endpoint amyloid fibril formation yields (which are slightly different for WT and V122I) were normalized for each allele to amyloidogenesis in the absence of stabilizer, assigned to be 100% fibril formation. Therefore, 5% fibril formation corresponds to a compound inhibiting 95% of TTR fibril formation after 72 h (See Miroy, G. J., et al. Inhibiting transthyretin amyloid fibril formation via protein stabilization. Proc Natl Acad Sci USA 1996, 93, 15051-15056). […]
SMILES,prevention of fibril formation ([1]; amyloidogenic light chains),binding to amyloidogenic light chains [1],inhibition of TTR fibril formation [2]
O=C(O[C@@H]1Cc2c(O)cc(O)cc2O[C@@H]1c1cc(O)c(O)c(O)c1)c1cc(O)c(O)c(O)c1,prevent fibril formation,bind to amyloidogenic light chains,
"O=C(O)c1cccc(-c2noc(-c3ccccc3F)n2)c1 [Ataluren, 3-[5-(2-fluorophenyl)-1,2,4-oxadiazol-3-yl]benzoic acid]",,,inhibit TTR fibril formation
